This is an account of results in patent US9670227B2, “Thienopyrimidine derivatives, a process for their preparation and pharmaceutical compositions containing them” (LES LABORATOIRES SERVIER, priority 2013, dated 2017).

The test deals with Mcl-1 protein (UniProtKB primary accession number: Q07820) (Homo sapiens, UniProt Q07820). The test can be described thus: Inhibition of Mcl-1 by fluorescence polarisation, Method 1. Type of test: binding. The note with it: for IC50: read-out: IC50 (M) Mcl-1 FP. The method in brief:
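FP readout of relative binding potency. Mcl-1 5 nM final, fluorescein-labelled ligand 1 nM final; buffer 10 mM HEPES, 150 mM NaCl, 0.05% Tween 20, pH 7.4; 11-pt dilution series, 5% DMSO final.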

Setting [1] is: fluorescence polarisation test, Method 1, or Method 2 where the value is underlined (underlining not visible).
Where [2] appears, read: fluorescence polarisation, Method 1, or Method 2.
Where [3] appears, read: fluorescence polarisation test, Method 2 values are underlined in the patent (underlining not visible here).

Where two headings read alike, the source gives them in different places.

Mcl-1 protein, sequence (Q07820 whole entry): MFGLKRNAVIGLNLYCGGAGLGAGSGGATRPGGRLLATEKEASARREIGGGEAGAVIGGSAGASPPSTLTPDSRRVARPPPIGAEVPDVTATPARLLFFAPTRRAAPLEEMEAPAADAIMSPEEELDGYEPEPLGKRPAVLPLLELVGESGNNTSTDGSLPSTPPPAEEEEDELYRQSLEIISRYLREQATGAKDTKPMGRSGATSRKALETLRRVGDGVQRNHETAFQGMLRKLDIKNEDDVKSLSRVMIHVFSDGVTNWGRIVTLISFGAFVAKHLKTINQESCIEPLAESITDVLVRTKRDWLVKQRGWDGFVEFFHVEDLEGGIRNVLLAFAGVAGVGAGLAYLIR

In general, IC50 refers to the midpoint of a concentration-inhibition curve. `CCC(=O)OC(C)OC(=O)C(Cc1ccccc1OCc1ccnc(-c2ccccc2OC)n1)Oc1ncnc2sc(-c3ccc(F)cc3)c(-c3ccc(OCCN4CCN(C)CC4)c(Cl)c3C)c12` [Example 860, 1-(propanoyloxy)ethyl (2R)-2-{[(5Sa)-5-{3-chloro-2-methyl-4-[2-(4-methylpiperazin-1-yl)ethoxy]phenyl}-6-(4-fluorophenyl)thieno[2,3-d]pyrimidin-4-yl]oxy}-3-(2-{[2-(2-methoxyphenyl)pyrimidin-4-yl]methoxy}phenyl)propanoate]: the IC50 under setting [1] came out at 2.04e-07 M. Regarding `CCCCn1nccc1COc1ccccc1CC(Oc1ncnc2sc(C#N)c(-c3ccc(OCCN4CCN(C)CC4)c(Cl)c3C)c12)C(=O)O` [Example 614, (2R)-3-{2-[(1-butyl-1H-pyrazol-5-yl)methoxy]phenyl}-2-[((5Sa)-5-{3-chloro-2-methyl-4-[2-(4-methylpiperazin-1-yl)ethoxy]phenyl}-6-cyanothieno[2,3-d]pyrimidin-4-yl)oxy]propanoic acid], the IC50 under setting [2] came out at 8.4e-09 M. On to `CCN(C)CCOc1ccc(-c2c(-c3ccc(F)cc3)sc3ncnc(OC(Cc4ccccc4OCc4ccnc(-c5ccccc5F)n4)C(=O)OCCOC)c23)c(C)c1Cl` [Example 803, 2-methoxyethyl (2R)-2-{[(5Sa)-5-(3-chloro-4-{2-[ethyl(methyl)amino]ethoxy}-2-methylphenyl)-6-(4-fluorophenyl)thieno[2,3-d]pyrimidin-4-yl]oxy}-3-(2-{[2-(2-fluorophenyl)pyrimidin-4-yl]methoxy}phenyl)propanoate], for which the half-inhibitory concentration (IC50) under setting [1] came out at 3.14e-06 M.

For `CCN(C)CCOc1ccc(-c2c(-c3ccc(F)cc3)sc3ncnc(OC(Cc4ccccc4OCc4ccnc(-c5ccccc5F)n4)C(=O)OCc4oc(=O)oc4C)c23)c(C)c1Cl` [Example 823, (5-methyl-2-oxo-1,3-dioxol-4-yl)methyl (2R)-2-{[(5Sa)-5-(3-chloro-4-{2-[ethyl(methyl)amino]ethoxy}-2-methylphenyl)-6-(4-fluorophenyl)thieno[2,3-d]pyrimidin-4-yl]oxy}-3-(2-{[2-(2-fluorophenyl)pyrimidin-4-yl]methoxy}phenyl)propanoate], the IC50 under setting [1] was determined as 1.98e-08 M.

Regarding `CCc1sc2ncnc(OC(Cc3ccccc3)C(=O)O)c2c1-c1ccc(OCCCc2ccncc2)c(Cl)c1C` [Example 399, (2R)-2-[((5Sa)-5-{3-chloro-2-methyl-4-[3-(pyridin-4-yl)propoxy]phenyl}-6-ethylthieno[2,3-d]pyrimidin-4-yl)oxy]-3-phenylpropanoic acid], under setting [2], the IC50 was 1.4e-08 M. As for `Cc1c(-c2c(-c3ccc(F)o3)sc3ncnc(OC(Cc4ccccc4OCc4ccnn4C(C)(C)C)C(=O)O)c23)ccc(OCCN2CCN(C)CC2)c1Cl` [Example 181, (2R)-3-{2-[(1-tert-butyl-1H-pyrazol-5-yl)methoxy]phenyl}-2-{[(5Sa)-5-{3-chloro-2-methyl-4-[2-(4-methylpiperazin-1-yl)ethoxy]phenyl}-6-(5-fluorofuran-2-yl)thieno[2,3-d]pyrimidin-4-yl]oxy}propanoic acid], under setting [3], the IC50 is 4.8e-09 M. As for `COc1ccccc1-c1nccc(COc2ccccc2CC(Oc2ncnc3sc(-c4ccc(F)cc4)c(-c4ccc(OCCN5CCN(C)CC5)c(Cl)c4C)c23)C(=O)OC(C)OC(=O)C(C)(C)C)n1` [Example 859, 1-{[(2R)-2-{[(5Sa)-5-{3-chloro-2-methyl-4-[2-(4-methylpiperazin-1-yl)ethoxy]phenyl}-6-(4-fluorophenyl)thieno[2,3-d]pyrimidin-4-yl]oxy}-3-(2-{[2-(2-methoxyphenyl)pyrimidin-4-yl]methoxy}phenyl)propanoyl]oxy}ethyl 2,2-dimethylpropanoate], the IC50 under setting [1] was found to be 1.13e-06 M. For the compound `Cc1c(-c2c(-c3ccc(F)o3)sc3ncnc(OC(Cc4ccccc4OCc4ccnn4C)C(=O)O)c23)ccc(OCCN2CCN(C)CC2)c1Cl` [Example 180, (2R)-2-{[(5Sa)-5-{3-chloro-2-methyl-4-[2-(4-methylpiperazin-1-yl)ethoxy]phenyl}-6-(5-fluorofuran-2-yl)thieno[2,3-d]pyrimidin-4-yl]oxy}-3-{2-[(1-methyl-1H-pyrazol-5-yl)methoxy]phenyl}propanoic acid], the IC50 under setting [3] came to 8.9e-09 M. Consider `COc1nccc(COc2ccccc2C[C@@H](Oc2ncnc3sc(-c4ccc(F)c(OCCN5CCOCC5)c4)c(-c4ccc(OC)c(Cl)c4C)c23)C(=O)O)n1` [Example 699, (2R)-2-{[(5Ra)-5-(3-chloro-4-methoxy-2-methylphenyl)-6-{4-fluoro-3-[2-(morpholin-4-yl)ethoxy]phenyl}thieno[2,3-d]pyrimidin-4-yl]oxy}-3-{2-[(2-methoxypyrimidin-4-yl)methoxy]phenyl}propanoic acid], for which the “percentage fluorescence polarisation inhibition, Mcl-1 FP” value (partial inhibitors, @ 1 uM test compound) stood at 28.5% @ 1 uM. On to `COc1ccccc1-c1nccc(COc2ccccc2CC(Oc2ncnc3sc(-c4ccc(F)cc4)c(-c4ccc(OCCN5CC6(CN(C)C6)C5)c(Cl)c4C)c23)C(=O)O)n1` [Example 833, (2R)-2-{[(5Sa)-5-{3-chloro-2-methyl-4-[2-(6-methyl-2,6-diazaspiro[3.3]hept-2-yl)ethoxy]phenyl}-6-(4-fluorophenyl)thieno[2,3-d]pyrimidin-4-yl]oxy}-3-(2-{[2-(2-methoxyphenyl)pyrimidin-4-yl]methoxy}phenyl)propanoic acid], for which, under setting [1], the IC50 came out at 3.35e-09 M. Turning to `Cc1c(-c2c(-c3ccc(F)cc3)sc3ncnc(OC(Cc4ccccc4OCc4ccnc(-c5ccccc5F)n4)C(=O)OCC(=O)N(C)C)c23)ccc(OCCN(C)C)c1Cl` [Example 818, 2-(dimethylamino)-2-oxoethyl (2R)-2-{[(5Sa)-5-{3-chloro-4-[2-(dimethylamino)ethoxy]-2-methylphenyl}-6-(4-fluorophenyl)thieno[2,3-d]pyrimidin-4-yl]oxy}-3-(2-{[2-(2-fluorophenyl)pyrimidin-4-yl]methoxy}phenyl)propanoate], under setting [1], the concentration for half-maximal inhibition (IC50) is 1.12e-06 M. In the case of `CCCCCCCCOC(=O)[C@@H](Cc1ccccc1OCc1ccnc(-c2ccccc2OC)n1)Oc1ncnc2sc(-c3ccc(F)cc3)c(-c3ccc(OCCN4CCN(C)CC4)c(Cl)c3C)c12` [Example 815, octyl (2R)-2-{[(5Sa)-5-{3-chloro-2-methyl-4-[2-(4-methylpiperazin-1-yl)ethoxy]phenyl}-6-(4-fluorophenyl)thieno[2,3-d]pyrimidin-4-yl]oxy}-3-(2-{[2-(2-methoxyphenyl)pyrimidin-4-yl]methoxy}phenyl)propanoate], the “percentage fluorescence polarisation inhibition (Mcl-1 FP), partial inhibitors” value (test compound at 10 uM, Method 1, or Method 2 where the value is underlined (underlining not visible)) was found to be 19.95% @ 10 uM. On to `CCn1nccc1COc1ccccc1CC(Oc1ncnc2sc(-c3ccc(F)o3)c(-c3ccc(OCCN4CCN(C)CC4)c(Cl)c3C)c12)C(=O)O` [Example 184, (2R)-2-{[(5Sa)-5-{3-chloro-2-methyl-4-[2-(4-methylpiperazin-1-yl)ethoxy]phenyl}-6-(5-fluorofuran-2-yl)thieno[2,3-d]pyrimidin-4-yl]oxy}-3-{2-[(1-ethyl-1H-pyrazol-5-yl)methoxy]phenyl}propanoic acid], for which, under setting [3], the IC50 was 6e-09 M.
